Measured values published in patent US20200405696A1, “INHIBITORS OF INDOLEAMINE 2,3-DIOXYGENASE AND/OR TRYPTOPHAN 2,3-DIOXYGENASE” (IDORSIA PHARMACEUTICALS LTD, priority 2018, published 2020).

Columns and labels:
[1] = target: T1, Recombinant full-length human IDO1 (Homo sapiens, UniProt P14902); experiment: IDO1 enzymatic assay (NFK quantified by LCMS); type: biochemical; conditions: 2 nM enzyme, 5 μM L-tryptophan, pH6.5, 30 minutes pre-incubation at RT; mean values when measured multiple times; read-out: hIDO activity (IC50 in nM)
T1 construct: Recombinant full-length human IDO1 with a N-terminal hexahistidine tag; hexahistidine (His6) (N); made in house; host or cells: E. coli
T1 sequence (P14902 whole entry): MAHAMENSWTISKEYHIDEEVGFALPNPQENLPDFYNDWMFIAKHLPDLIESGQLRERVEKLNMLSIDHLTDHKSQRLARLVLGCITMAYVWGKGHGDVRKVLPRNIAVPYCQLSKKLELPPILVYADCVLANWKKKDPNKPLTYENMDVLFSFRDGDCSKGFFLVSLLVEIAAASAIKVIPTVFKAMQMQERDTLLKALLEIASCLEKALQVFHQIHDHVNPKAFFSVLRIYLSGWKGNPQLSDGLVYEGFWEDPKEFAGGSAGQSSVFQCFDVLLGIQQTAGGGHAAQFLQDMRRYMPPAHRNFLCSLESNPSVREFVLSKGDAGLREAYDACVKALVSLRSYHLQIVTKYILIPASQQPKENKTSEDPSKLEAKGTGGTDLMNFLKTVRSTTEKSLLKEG
Method in brief: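 His-tagged human IDO1 (2 nM) in pH 6.5 phosphate buffer with ascorbate, methylene blue and catalase was preincubated with compound (10 μM–0.5 nM, 0.6% DMSO) for 30 min at RT. The reaction then ran with 5 μM L-Trp for 30 min. NFK was measured by LCMS against a d5-Trp standard, and IC50 was obtained by four-parameter fit.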

[2] = target: T2, Recombinant human TDO comprising amino acids 19-407 (Homo sapiens, UniProt P48775); experiment: TDO2 enzymatic assay (NFK quantified by LCMS); type: biochemical; conditions: 15 nM enzyme, 200 μM L-tryptophan, pH7, 30 minutes pre-incubation at RT; mean values when measured multiple times; read-out: hTDO activity (IC50 in nM)
T2 construct: Recombinant human TDO comprising amino acids 19-407 with a N-terminal hexahistidine tag; hexahistidine (His6) (N); made in house; host or cells: E. coli
T2 sequence (P48775 19-406 limits assumed): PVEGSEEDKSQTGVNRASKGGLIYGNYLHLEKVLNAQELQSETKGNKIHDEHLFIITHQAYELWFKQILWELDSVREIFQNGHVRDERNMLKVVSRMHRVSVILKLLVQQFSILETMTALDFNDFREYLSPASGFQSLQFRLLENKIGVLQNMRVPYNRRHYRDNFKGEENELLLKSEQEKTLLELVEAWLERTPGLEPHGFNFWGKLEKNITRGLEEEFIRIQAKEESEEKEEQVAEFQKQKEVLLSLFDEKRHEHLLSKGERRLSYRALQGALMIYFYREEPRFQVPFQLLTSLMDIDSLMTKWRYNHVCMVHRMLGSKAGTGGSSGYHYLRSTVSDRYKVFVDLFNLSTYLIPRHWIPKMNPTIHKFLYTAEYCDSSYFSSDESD
Method in brief: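 NFK formed over 30 min at RT from 200 μM L-tryptophan was measured by LCMS, normalized to d5-tryptophan, after compound (0.5 nM–10 μM, duplicates, 0.6% DMSO) was preincubated 30 min with 15 nM recombinant His-tagged TDO 19-407 in phosphate buffer pH 7. IC50 from four-parameter logistic fit; repeats averaged.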

| Structure (SMILES) | IC50 [1] | IC50 [2] |
| --- | --- | --- |
| O[C@@H](c1cn(-c2ccc(OCC3CCOCC3)c(Cl)c2)nn1)c1c(C2CC2)sc2cncn12 [Example 276, (R)-{1-[3-Chloro-4-(tetrahydro-pyran-4-ylmethoxy)-phenyl]-1H-[1,2,3]triazol-4-yl}-(2-cyclopropyl-imidazo[5,1-b]thiazol-3-yl)-methanol] | 4.63 nM | > 10200 nM |
| CC(C)(O)CCOc1ccc(-n2cc([C@H](O)c3c(C4CC4)sc4cncn34)nn2)cc1Cl [Example 277, 4-(2-Chloro-4-{4-[(R)-(2-cyclopropyl-imidazo[5,1-b]thiazol-3-yl)-hydroxy-methyl]-[1,2,3]triazol-1-yl}-phenoxy)-2-methyl-butan-2-ol] | 7.12 nM | > 10200 nM |
| O[C@@H](c1cn(-c2ccc(OCC3(F)COC3)c(Cl)c2)nn1)c1c(C2CC2)sc2cncn12 [Example 282, (R)-{1-[3-Chloro-4-(3-fluoro-oxetan-3-ylmethoxy)-phenyl]-1H-[1,2,3]triazol-4-yl}-(2-cyclopropyl-imidazo[5,1-b]thiazol-3-yl)-methanol] | 5.58 nM | > 10200 nM |
| CC(C)(O)COc1ccc(-n2cc([C@H](O)c3c(C4CC4)sc4cncn34)nn2)cc1Cl [Example 283, 1-(2-Chloro-4-{4-[(R)-(2-cyclopropyl-imidazo[5,1-b]thiazol-3-yl)-hydroxy-methyl]-[1,2,3]triazol-1-yl}-phenoxy)-2-methyl-propan-2-ol] | 7.31 nM | > 10200 nM |
